# In ChEMBL document CHEMBL1201862, “PubChem BioAssay data set” (2004):
#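 These data come from cells grown in 96-well plates and exposed to compound for 48 hours at five concentrations. The concentration for 50% growth inhibition is given as GI50.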 Active and inactive are the calls of the source. Rule as the data show it: active = GI50 up to about 1.1 µM and inactive = higher.
# Key:
# Experiment in all cases: NCI anticancer screen, dose series, 48 h
# [1] = system: SW-620
# [2] = system: SK-MEL-2
# [3] = system: K562
# [4] = system: SR
# [5] = system: MDA-MB-231
# [6] = system: HCC 2998
# [7] = system: NCI-H522
# [8] = system: UACC-62
# [9] = system: LOX IMVI
# [10] = system: T47D
# [11] = system: IGROV-1
# [12] = system: SF-268
# [13] = system: MDA-MB-435
# [14] = system: ACHN
# [15] = system: MCF7
# [16] = system: OVCAR-3
# [17] = system: UO-31
# [18] = system: SF-295
# [19] = system: TK-10
# [20] = system: CCRF-CEM
Structure (SMILES),GI50 [1],GI50 [2],GI50 [3],GI50 [4],GI50 [5],GI50 [6],GI50 [7],GI50 [8],GI50 [9],GI50 [10],GI50 [11],GI50 [12],GI50 [13],GI50 [14],GI50 [15],GI50 [16],GI50 [17],GI50 [18],GI50 [19],GI50 [20]
CCCC/C=C1/CCC(CN(C)C)C1=O (stereo unspecified),1.14 µM (inactive),4.49 µM (inactive),0.701 µM (active),0.456 µM (active),2.82 µM (inactive),1.56 µM (inactive),0.656 µM (active),2.09 µM (inactive),1.39 µM (inactive),1.31 µM (inactive),3.98 µM (inactive),2.47 µM (inactive),11 µM (inactive),2.05 µM (inactive),0.525 µM (active),1.94 µM (inactive),2.3 µM (inactive),6.71 µM (inactive),1.01 µM (active),
COc1cc2c(cc1OC)C1Cc3ccccc3CN1CCC2 (stereo unspecified),> 100 µM (inactive),> 100 µM (inactive),50 µM (inactive),> 100 µM (inactive),> 100 µM (inactive),> 100 µM (inactive),> 100 µM (inactive),> 100 µM (inactive),> 100 µM (inactive),63.7 µM (inactive),> 100 µM (inactive),> 100 µM (inactive),47.6 µM (inactive),> 100 µM (inactive),> 100 µM (inactive),> 100 µM (inactive),,> 100 µM (inactive),> 100 µM (inactive),46.9 µM (inactive)
COc1ccc(/C=C/C(=O)Oc2ccccc2OC)cc1,21.5 µM (inactive),39 µM (inactive),23.8 µM (inactive),6.73 µM (inactive),6.52 µM (inactive),16.6 µM (inactive),20.3 µM (inactive),54.5 µM (inactive),29.9 µM (inactive),31.5 µM (inactive),5.2 µM (inactive),1.81 µM (inactive),40.6 µM (inactive),> 27.6 µM (inactive),44.4 µM (inactive),53.8 µM (inactive),37.7 µM (inactive),3.21 µM (inactive),> 81.8 µM (inactive),0.336 µM (active)
O=C(c1ccccc1)C1C(c2ccccc2[N+](=O)[O-])N1C1CCCCC1 (stereo unspecified),,5.21 µM (inactive),2.79 µM (inactive),0.634 µM (active),7.69 µM (inactive),6.79 µM (inactive),2.11 µM (inactive),7.4 µM (inactive),2.1 µM (inactive),2.51 µM (inactive),4.25 µM (inactive),9.2 µM (inactive),2.6 µM (inactive),1.94 µM (inactive),3.65 µM (inactive),2.5 µM (inactive),6.61 µM (inactive),15.4 µM (inactive),2.74 µM (inactive),
CC(=O)OC1=CC2=CC[C@H]3[C@@H]4CCC(=O)[C@@]4(C)CC(=O)[C@]3(S)[C@@]2(C)CC1,31.6 µM (inactive),47.1 µM (inactive),25.1 µM (inactive),23.6 µM (inactive),26 µM (inactive),31.6 µM (inactive),20 µM (inactive),26.1 µM (inactive),18.8 µM (inactive),34.8 µM (inactive),27 µM (inactive),26.7 µM (inactive),30.7 µM (inactive),34.2 µM (inactive),30.6 µM (inactive),22.7 µM (inactive),51.1 µM (inactive),48.4 µM (inactive),27.9 µM (inactive),29 µM (inactive)
COc1cc(C2c3cc4c(cc3OC3(OC)COC(=O)C23)OCO4)cc(OC)c1OC (stereo unspecified),0.286 µM (active),0.771 µM (active),0.23 µM (active),0.272 µM (active),0.29 µM (active),0.325 µM (active),0.18 µM (active),0.311 µM (active),0.188 µM (active),> 100 µM (inactive),0.425 µM (active),0.514 µM (active),0.0863 µM (active),0.618 µM (active),0.292 µM (active),0.282 µM (active),0.675 µM (active),0.173 µM (active),1.19 µM (inactive),0.305 µM (active)
O=S1(=O)CCC2=CC(C(F)(F)F)=CC(C(F)(F)F)=CN21,0.302 µM (active),1.82 µM (inactive),0.39 µM (active),0.216 µM (active),2.78 µM (inactive),2.07 µM (inactive),0.236 µM (active),1.64 µM (inactive),0.348 µM (active),0.167 µM (active),1.84 µM (inactive),1.72 µM (inactive),1.82 µM (inactive),0.415 µM (active),0.386 µM (active),1.12 µM (active),0.805 µM (active),2.12 µM (inactive),0.697 µM (active),0.0738 µM (active)
COc1ccc(C(=O)N2CCN(c3ccc4[nH]c(=O)oc4c3)CC2)cc1,> 100 µM (inactive),> 100 µM (inactive),,92.5 µM (inactive),> 100 µM (inactive),> 100 µM (inactive),53.1 µM (inactive),99.3 µM (inactive),> 100 µM (inactive),> 100 µM (inactive),99.1 µM (inactive),> 100 µM (inactive),> 100 µM (inactive),69.8 µM (inactive),> 100 µM (inactive),> 100 µM (inactive),> 100 µM (inactive),> 100 µM (inactive),> 100 µM (inactive),> 100 µM (inactive)
CC1(C)C(=O)N(O)C(C)(C)N1O,> 10 µM (inactive),> 10 µM (inactive),> 10 µM (inactive),> 10 µM (inactive),> 10 µM (inactive),> 10 µM (inactive),> 10 µM (inactive),> 10 µM (inactive),> 10 µM (inactive),> 10 µM (inactive),> 10 µM (inactive),> 10 µM (inactive),> 10 µM (inactive),> 10 µM (inactive),> 10 µM (inactive),> 10 µM (inactive),,> 10 µM (inactive),> 10 µM (inactive),> 10 µM (inactive)
O=C1/C(=C/c2ccc(Cl)cc2)N=C(c2ccccc2)N1C1Nc2cc3c(cc2S1)NC(N1C(=O)/C(=C/c2ccc(Cl)cc2)N=C1c1ccccc1)S3 (stereo unspecified),22 µM (inactive),88.9 µM (inactive),21.2 µM (inactive),6.18 µM (inactive),> 100 µM (inactive),61.1 µM (inactive),18.7 µM (inactive),,31.7 µM (inactive),28.8 µM (inactive),47.6 µM (inactive),27 µM (inactive),52.8 µM (inactive),> 100 µM (inactive),42.2 µM (inactive),49.8 µM (inactive),80.2 µM (inactive),73.5 µM (inactive),> 100 µM (inactive),11.5 µM (inactive)
COc1ccc(/C=C2/C(=O)N(/C=C3\C(=O)Oc4ccccc4C3=O)/C(=N/C(C)=O)N2C)cc1OC,> 100 µM (inactive),> 100 µM (inactive),> 100 µM (inactive),> 100 µM (inactive),> 100 µM (inactive),> 100 µM (inactive),> 100 µM (inactive),> 100 µM (inactive),> 100 µM (inactive),> 100 µM (inactive),> 100 µM (inactive),> 100 µM (inactive),> 100 µM (inactive),> 100 µM (inactive),> 100 µM (inactive),0.143 µM (active),,> 100 µM (inactive),,> 100 µM (inactive)
CNC(=O)Nc1cc2c3c(c1)CCCN3CCC2,> 10 µM (inactive),> 10 µM (inactive),> 10 µM (inactive),> 10 µM (inactive),> 10 µM (inactive),> 10 µM (inactive),> 10 µM (inactive),> 10 µM (inactive),> 10 µM (inactive),> 10 µM (inactive),> 10 µM (inactive),> 10 µM (inactive),> 10 µM (inactive),> 10 µM (inactive),> 10 µM (inactive),> 10 µM (inactive),,> 10 µM (inactive),> 10 µM (inactive),> 10 µM (inactive)
Cc1ccc(SCC(OCn2cnc3c(N)ncnc32)[C@H](C)F)cc1 (stereo partly specified),> 100 µM (inactive),> 100 µM (inactive),,> 100 µM (inactive),> 100 µM (inactive),> 100 µM (inactive),> 100 µM (inactive),> 100 µM (inactive),> 100 µM (inactive),> 100 µM (inactive),> 100 µM (inactive),> 100 µM (inactive),> 100 µM (inactive),> 100 µM (inactive),> 100 µM (inactive),> 100 µM (inactive),> 100 µM (inactive),> 100 µM (inactive),> 100 µM (inactive),> 100 µM (inactive)
Cc1ccc(S(=O)(=O)N2C3C=CC(C3)[C@@H]2C(Cl)(Cl)Cl)cc1 (stereo partly specified),20 µM (inactive),7.36 µM (inactive),,14.4 µM (inactive),12.5 µM (inactive),7.31 µM (inactive),14 µM (inactive),14.6 µM (inactive),18.5 µM (inactive),10.7 µM (inactive),19.6 µM (inactive),13.2 µM (inactive),27 µM (inactive),14.3 µM (inactive),26.7 µM (inactive),6.64 µM (inactive),15 µM (inactive),13.6 µM (inactive),18.7 µM (inactive),17 µM (inactive)
Clc1cccc2[nH]ncc12,> 100 µM (inactive),> 100 µM (inactive),> 100 µM (inactive),30.6 µM (inactive),> 100 µM (inactive),> 100 µM (inactive),26.5 µM (inactive),> 100 µM (inactive),58.1 µM (inactive),16.6 µM (inactive),> 100 µM (inactive),,> 100 µM (inactive),> 100 µM (inactive),64.6 µM (inactive),> 100 µM (inactive),,> 100 µM (inactive),> 100 µM (inactive),> 100 µM (inactive)
